Data published in patent US20020137929A1, “1 - (3-heterocyclylphenyl) isothiourea, -isourea, -guanidine and -amidine herbicidal agents” (Intellectual Property Department, BASF Aktiengesellschaft, priority 1998, published 2002).

Columns and labels:
[1] = tested on: AMBEL (Ragweed, Common); test: Preemergence herbicidal evaluation; format: in vivo, Ambrosia artemisifolia; conditions: rated 4-5 weeks after treatment; for AMBEL rating: preemergence, 0-9 scale
Method in brief: (§1)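 Seeds were planted in potting soil in cups, then sprayed preemergence with the test compound in aqueous acetone at about 0.0156 to 0.500 kg per hectare. Cups were kept under greenhouse conditions and visually rated 4–5 weeks after treatment on a 0–9 scale against an untreated control.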

[2] = tested on: GLXMAW (Soybean, Williams); test: Preemergence herbicidal evaluation; format: in vivo, Glycine max, (L.) Merr. cv Williams; conditions: rated 4-5 weeks after treatment; for GLXMAW rating: preemergence, 0-9 scale
Method in brief: as §1

[3] = tested on: MOOVA (Monochoria); test: Postemergence weed control under flooded paddy conditions; format: in vivo, Monochoria vaginalis; conditions: postemergence weeds
Method in brief: (§2)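 Weeds 3 to 5 cm tall and rice seedlings at the 1.5 to 2.5 leaf stage were flooded, with water held 1.5 to 3 cm above the soil. Compounds in 50/50 v/v aqueous/acetone went into the flood water at about 0.0313 to 0.500 kg/ha. Visual 0-9 ratings versus control were made 3 to 4 weeks later.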

[4] = tested on: ABUTH (Velvetleaf); test: Preemergence herbicidal evaluation; format: in vivo, Abutilon theophrasti; conditions: rated 4-5 weeks after treatment; for ABUTH rating: preemergence, 0-9 scale
Method in brief: as §1

[5] = tested on: SAGPY (Arrowhead (Pygmaea)); test: Postemergence weed control under flooded paddy conditions; format: in vivo, Sagittaria pygmaea; conditions: postemergence weeds
Method in brief: as §2

[6] = tested on: ZEAMX (Corn, Field); test: Postemergence herbicidal evaluation; format: in vivo, Zea mays; conditions: postemergence
Method in brief: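 Two-week-old seedlings sprayed with compound in 50/50 acetone/water plus 0.5% TWEEN 20, at about 0.0156 to 0.500 kg/ha, nozzle at 40 psi. Kept in greenhouse; rated visually 4-5 weeks after treatment on a 0-9 scale versus control, repeat tests averaged.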

[7] = rate 0.0313 kg/ha, 3-4 weeks after treatment
[8] = rate 0.0625 kg/ha, 3-4 weeks after treatment
[9] = rate 0.1250 kg/ha, 3-4 weeks after treatment
[10] = rate 0.2500 kg/ha, 3-4 weeks after treatment
[11] = Rate 0.0313 kg/ha, rated 3 to 4 weeks after treatment
[12] = Rate 0.0625 kg/ha, rated 3 to 4 weeks after treatment
[13] = Rate 0.1250 kg/ha, rated 3 to 4 weeks after treatment
[14] = Rate 0.2500 kg/ha, rated 3 to 4 weeks after treatment
[15] = Rate 0.5000 kg/ha, rated 3 to 4 weeks after treatment

`CCOC(=O)CN1C(=O)C(C)SC1=Nc1cc(-n2c(=O)cc(C(F)(F)F)n(C)c2=O)c(F)cc1Cl` (stereo not shown) [Compound 12] was tested, and the “AMBEL preemergence herbicidal rating” value ([1]; rate 0.0156 kg/ha) was 0.0, the “AMBEL preemergence herbicidal rating” value ([1]; rate 0.0313 kg/ha) was 4.5 and the “AMBEL preemergence herbicidal rating” value ([1]; rate 0.0625 kg/ha) was 9.0. For the same molecule, the “AMBEL preemergence herbicidal rating” value ([1]; rate 0.1250 kg/ha) was 9.0, the “AMBEL preemergence herbicidal rating” value ([1]; rate 0.2500 kg/ha) was 9.0 and the “GLXMAW preemergence herbicidal rating” value ([2]; rate 0.0156 kg/ha) was 1.5. The “GLXMAW preemergence herbicidal rating” value ([2]; rate 0.0313 kg/ha) was 2.0, the “GLXMAW preemergence herbicidal rating” value ([2]; rate 0.0625 kg/ha) was 3.5 and the “GLXMAW preemergence herbicidal rating” value ([2]; rate 0.1250 kg/ha) was 6.5. For the same molecule, the “GLXMAW preemergence herbicidal rating” value ([2]; rate 0.2500 kg/ha) was 9.0, the “Herbicidal rating MOOVA” value [3, 7] was 9.0 and the “Herbicidal rating MOOVA” value [3, 8] was 9.0. The “Herbicidal rating MOOVA” value [3, 9] was 9.0, the “Herbicidal rating MOOVA” value [3, 10] was 9.0 and the “ABUTH preemergence herbicidal rating” value ([4]; rate 0.0156 kg/ha) was 7.5. For the same molecule, the “ABUTH preemergence herbicidal rating” value ([4]; rate 0.0313 kg/ha) was 9.0, the “ABUTH preemergence herbicidal rating” value ([4]; rate 0.0625 kg/ha) was 9.0 and the “ABUTH preemergence herbicidal rating” value ([4]; rate 0.1250 kg/ha) was 9.0. For the same molecule, the “ABUTH preemergence herbicidal rating” value ([4]; rate 0.2500 kg/ha) was 9.0, the “Herbicidal rating SAGPY” value [5, 7] was 0.0 and the “Herbicidal rating SAGPY” value [5, 8] was 1.0. For the same molecule, the “Herbicidal rating SAGPY” value [5, 9] was 4.0, the “Herbicidal rating SAGPY” value [5, 10] was 0.0 and the ZEAMX herbicidal rating ([6]; rate 0.0156 kg/ha) was 6.5. The ZEAMX herbicidal rating ([6]; rate 0.0313 kg/ha) was 7.0, the ZEAMX herbicidal rating ([6]; rate 0.0625 kg/ha) was 7.5 and the ZEAMX herbicidal rating ([6]; rate 0.1250 kg/ha) was 8.0.

With `C=CCN1C(=O)C(CC(N)=O)SC1=Nc1cc(-n2c(=O)cc(C(F)(F)F)n(C)c2=O)c(F)cc1Cl` (stereo not shown) [Compound 99, 3-Allyl-2-{{2-chloro-5-[3,6-dihydro-3-methyl-2,6-dioxo-4-(trifluoromethyl)-1(2H)-pyrimidinyl]-4-fluorophenyl}imino}-4-oxo-5-thiazolidineacetamide] the AMBEL rating ([1]; 0.0156 kg/ha) was 0.0, the AMBEL rating ([1]; 0.0313 kg/ha) was 0.0 and the AMBEL rating ([1]; 0.0625 kg/ha) was 4.0. The AMBEL rating ([1]; 0.1250 kg/ha) was 9.0, the AMBEL rating ([1]; 0.2500 kg/ha) was 9.0 and the AMBEL rating ([1]; 0.5000 kg/ha) was 9.0. The GLXMAW rating ([2]; 0.0156 kg/ha) was 0.0, the GLXMAW rating ([2]; 0.0313 kg/ha) was 0.0 and the GLXMAW rating ([2]; 0.0625 kg/ha) was 3.0. It also gave a GLXMAW rating ([2]; 0.1250 kg/ha) of 4.0, a GLXMAW rating ([2]; 0.2500 kg/ha) of 7.0 and a GLXMAW rating ([2]; 0.5000 kg/ha) of 7.0. The “Herbicidal rating MOOVA” value [3, 11] was 9.0, the “Herbicidal rating MOOVA” value [3, 12] was 9.0 and the “Herbicidal rating MOOVA” value [3, 13] was 9.0. For the same molecule, the “Herbicidal rating MOOVA” value [3, 14] was 9.0, the “Herbicidal rating MOOVA” value [3, 15] was 9.0 and the ABUTH rating ([4]; 0.0156 kg/ha) was 9.0. The ABUTH rating ([4]; 0.0313 kg/ha) was 9.0, the ABUTH rating ([4]; 0.0625 kg/ha) was 9.0 and the ABUTH rating ([4]; 0.1250 kg/ha) was 9.0. For the same molecule, the ABUTH rating ([4]; 0.2500 kg/ha) was 9.0, the ABUTH rating ([4]; 0.5000 kg/ha) was 9.0 and the “Herbicidal rating SAGPY” value [5, 11] was 0.0. For the same molecule, the “Herbicidal rating SAGPY” value [5, 12] was 0.0, the “Herbicidal rating SAGPY” value [5, 13] was 3.0 and the “Herbicidal rating SAGPY” value [5, 14] was 4.0. For the same molecule, the “Herbicidal rating SAGPY” value [5, 15] was 4.0, the “herbicidal rating ZEAMX” value ([6]; rate 0.0156 kg/ha) was 5.0 and the “herbicidal rating ZEAMX” value ([6]; rate 0.0313 kg/ha) was 6.0. The ZEAMX herbicidal rating ([6]; rate 0.0625 kg/ha) was 7.5 and the ZEAMX herbicidal rating ([6]; rate 0.1250 kg/ha) was 8.0.

In the case of `CCOC(=O)CN1C(=O)C(CC(=O)NS(=O)(=O)c2ccccc2)SC1=Nc1cc(-n2c(=O)cc(C(F)(F)F)n(C)c2=O)c(F)cc1Cl` (stereo not shown) [Compound 100, Ethyl 2-{{2-chloro-5-[3,6-dihydro-3-methyl-2,6-dioxo-4-(trifluoromethyl)-1(2H)-pyrimidinyl]-4-fluorophenyl}imino}-4-oxo-5-{[(phenylsulfonyl)-carbamoyl]methyl]-3-thiazolidineacetate], the AMBEL rating ([1]; 0.0313 kg/ha) is reported as 0.0, the AMBEL rating ([1]; 0.0625 kg/ha) is reported as 0.0 and the AMBEL rating ([1]; 0.1250 kg/ha) is reported as 1.0. It also gave an AMBEL rating ([1]; 0.2500 kg/ha) of 1.0, an AMBEL rating ([1]; 0.5000 kg/ha) of 7.0 and a GLXMAW rating ([2]; 0.0313 kg/ha) of 0.0. For the same molecule, the GLXMAW rating ([2]; 0.0625 kg/ha) was 1.0, the GLXMAW rating ([2]; 0.1250 kg/ha) was 1.0 and the GLXMAW rating ([2]; 0.2500 kg/ha) was 0.0. The GLXMAW rating ([2]; 0.5000 kg/ha) was 2.0, the “Herbicidal rating MOOVA” value [3, 11] was 9.0 and the “Herbicidal rating MOOVA” value [3, 12] was 9.0. For the same molecule, the “Herbicidal rating MOOVA” value [3, 13] was 9.0, the “Herbicidal rating MOOVA” value [3, 14] was 9.0 and the “Herbicidal rating MOOVA” value [3, 15] was 9.0. For the same molecule, the ABUTH rating ([4]; 0.0313 kg/ha) was 0.0, the ABUTH rating ([4]; 0.0625 kg/ha) was 0.0 and the ABUTH rating ([4]; 0.1250 kg/ha) was 2.0. The ABUTH rating ([4]; 0.2500 kg/ha) was 9.0, the ABUTH rating ([4]; 0.5000 kg/ha) was 9.0 and the “Herbicidal rating SAGPY” value [5, 11] was 0.0. The “Herbicidal rating SAGPY” value [5, 12] was 0.0, the “Herbicidal rating SAGPY” value [5, 13] was 0.0 and the “Herbicidal rating SAGPY” value [5, 14] was 4.0. For the same molecule, the “Herbicidal rating SAGPY” value [5, 15] was 6.0, the “herbicidal rating ZEAMX” value ([6]; rate 0.0156 kg/ha) was 4.5 and the “herbicidal rating ZEAMX” value ([6]; rate 0.0313 kg/ha) was 5.0. For the same molecule, the “herbicidal rating ZEAMX” value ([6]; rate 0.0625 kg/ha) was 5.0 and the “herbicidal rating ZEAMX” value ([6]; rate 0.1250 kg/ha) was 5.0.
